Test results from US10457649B2, “Polymorphs of a mPGES-1 inhibiting triazolone compound” (Glenmark Pharmaceuticals S.A., priority 2015, dated 2019).

Experiment: Stability studies of compound of formula II on storage; degradation products estimated by HPLC
Type: physicochemical
Text: Apparatus: A High Performance Liquid Chromatograph equipped with quaternary gradient pumps, variable wavelength UV detector attached with data recorder and Integrator software or equivalent.
Column: Zorbax Eclipse XDB C-8, 150 mm×4.6 mm, 5μ or equivalent
Mobile phase: A: Buffer B: Methanol (Gradient Program)
Buffer: Water, pH adjusted to 2.2 with trifluoroacetic acid solution. Filter through 0.45μ filter paper and degas.
Diluent: Water: Methanol (20:80 v/v)
Detection wavelength: UV 270 nm
Column temperature: 25° C.
25 mg of the compound was weighed and transferred into a 50 mL volumetric flask. Methanol (5 ml) was added and it was sonicated to dissolve. The diluent was added to make up the solution to the mark of the flask.
The equal volumes of blank (diluent) and test solution were separately injected into the High Performance liquid chromatography. The responses were recorded eliminating the peaks due to blank and the chromatographic purity by area was calculated by normalization method.
The compound of formula II was stored under conditions as shown in below table and a total amount of degradation products (related substances) as well as single maximum impurity formed during storage was estimated by HPLC. The material was packed in inner clear polythene bag under nitrogen lined with black polythene bag, covered with triple laminated aluminium bag placed in HDPE drum and subjected to the conditions mentioned in the table 5.
The result of stability studies of compound of formula (II) carried out under the conditions mentioned in the table 5 is presented in tables 6 and 7.

[1] = storage condition 1: 25 ± 2° C., 60 ± 5% RH, storage period 0 months
[2] = storage condition 1: 25 ± 2° C., 60 ± 5% RH, storage period 3 months
[3] = storage condition 1: 25 ± 2° C., 60 ± 5% RH, storage period 6 months
[4] = storage condition 2: 40 ± 2° C., 75 ± 5% RH, storage period 0 months
[5] = storage condition 2: 40 ± 2° C., 75 ± 5% RH, storage period 1 month
[6] = storage condition 2: 40 ± 2° C., 75 ± 5% RH, storage period 2 months
[7] = storage condition 2: 40 ± 2° C., 75 ± 5% RH, storage period 3 months
[8] = storage condition 2: 40 ± 2° C., 75 ± 5% RH, storage period 6 months

Related substances [1]: 0.13%
Single max. impurity [1]: 0.13%
Related substances [2]: 0.14%
Single max. impurity [2]: 0.14%
Related substances [3]: 0.14%
Single max. impurity [3]: 0.14%
Related substances [4]: 0.13%
Single max. impurity [4]: 0.13%
Related substances [5]: 0.14%
Single max. impurity [5]: 0.14%
Related substances [6]: 0.13%
Single max. impurity [6]: 0.13%
Related substances [7]: 0.14%
Single max. impurity [7]: 0.14%
Related substances [8]: 0.13%
Single max. impurity [8]: 0.13%
SMILES: CC(C)(C)C(=O)NCc1ccc(Cl)c(-c2nn(-c3ccc(C(F)(F)F)cc3)c(=O)[nH]2)c1 [compound of formula II, N-(4-chloro-3-(5-oxo-1-(4-(trifluoromethyl)phenyl)-4,5-dihydro-1H-1,2,4-triazol-3-yl)benzyl)pivalamide]
